Values joined by “and” are separate entries in the source; they are usually repeats but may differ in a detail not shown here. Equal entries are not always repeated.

The subject of the assay is 422866-222-R5-J1-PDC complex spheroid viability. Nature of the assay: Anticancer human tumor 422866-222-R5-J1-PDC patient-derived pancreatic adenocarcinoma cell line growth inhibition [POLQ]. The following applies: for viability, T/C: stronger effect = lower value. How it is done:
Multicellular complex tumor spheroid response to Polymerase (POL) inhibitors (novobiocin, ART-558, RP6685) in combination with a variety of drugs and investigational agents in selected tumor cell lines
The POL inhibitors (novobiocin, ART-558, and RP6685) were evaluated both individually and in combination with standard of care and investigational anticancer small molecules within a complex spheroid model of solid tumors. . Complex spheroids include a stromal component modeled by human endothelial cells (HUVEC) and fibroblasts modeled by human mesenchymal stem cells (MSCs). The concentration ranges selected for each drug and investigational agent were based upon clinically achievable concentrations if the clinical Cmax of the agent was known.
Compounds. The drugs and investigational agents: novobiocin (NSC847541), ART-558 (NSC835418), RP-6685 (NSC848927), peposertib (NSC802822), ceralasertib (NSC780249), elimusertib (NSC800525), camonsertib (NSC841442), AZD-1390 (NSC803789), olaparib (NSC753686), talazoparib (NSC767125), rucaparib (NSC756644), sotorasib (NSC818433), MRTX-1133 (NSC836407), SN-38 (NSC673596), topotecan (NSC609699), epotoside (NSC141540), doxorubicin (NSC123127), gemcitabine (NSC613327), 5-fluorouracil (NSC19893), paclitaxel (NSC125973), vemurafenib (NSC761431), MSA-2 (NSC828583), SN-011 (NSC837082), adavosertib (NSC754352), prexasertib (NSC758257), carboplatin (NSC241240) and oxaliplatin (NSC266046), were obtained from the National Cancer Institute (NCI) Developmental Therapeutics Program Chemical Repository (21). The FDA-approved anticancer drug set is available from the Developmental Therapeutics Program at https://dtp.cancer.gov/organization/dscb/obtaining/. […] The stock solutions were prepared in dimethyl sulfoxide (DMSO, Sigma-Aldrich, St. Louis, MO, cat. D2650), except for the platinum compounds which were prepared in saline (Quality Biological, Gaithersburg, MD, cat. 114-055-101), at 800-fold the tested concentration and stored at -70 degrees C prior to their use. All drugs and investigational agents were tested over a range starting from a high concentration at or near the clinical Cmax and decreasing in half-log increments. If the clinical Cmax for an agent had not been determined, the highest concentration tested was 10 microM, except for SN-38, which was tested at a high concentration of 1 microM.
Cell Culture. All cells were maintained in an incubator at 37 degrees C and 5% CO2 with 95% humidity. The PDC lines were cultured according to standard operating procedures established by the NCI PDMR (https://pdmr.cancer.gov). Table 3 of the manuscript, lists the cell lines along with the number of the three cell types plated to form the mct-spheroids and media for tumor cell growth. After thawing, all PDC lines, except 997537-175-T-J1-PDC and 415267-285-R-J2-PDC, were cultured in Matrigel-coated flasks prepared with a working solution of 1X Ham's F-12 nutrient mix, without supplementation (Thermo Fisher Scientific, cat. 11765054), 100 U/mL penicillin-streptomycin (Thermo Fisher Scientific, cat. 15140122), and 2.5% Matrigel (Corning Inc., Corning, NY, cat. 354248) for the first three passages. The two PDC lines 997537-175-T-J1-PDC and 415267-285-R-J2-PDC were cultured on uncoated flasks. The 857933-349-R-J2-PDC line was cultured in 6C/Colon 1B media containing advanced DMEM/F-12 (Thermo Fisher Scientific, cat. 12634028), 10 mM HEPES (Thermo Fisher Scientific, cat. 15630080), 1X GlutaMAX supplement (Thermo Fisher Scientific, cat. 35050061), 0.1 mg/mL primocin (InvivoGen, San Diego, CA, cat. ant-pm-2), 10% defined fetal bovine serum, heat inactivated (HyClone Laboratories Inc., Logan, UT, cat. SH30070.03HI), 50% L-WRN conditioned media (ATCC, cat. CRL-3276), 1.25 mM N-Acetyl-L-cysteine (Sigma-Aldrich, cat. A9165), 10 mM nicotinamide (Sigma-Aldrich, cat. N0636), 1X B-27 supplement (Thermo Fisher Scientific, cat. 17504044), 1X N-2 supplement (Thermo Fisher Scientific, cat. […]
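Also: spheroids exposed to compounds for one week before readout.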
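For viability, T/C in this document: percent of DMSO vehicle wells luminescence so 100% = untreated viability.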

Usually viability, T/C stands for the result in the treated group divided by that in the control group, in per cent. One may read the IC50 as the midpoint of a concentration-inhibition curve. On to `O=C(Nc1ccc(O)c(NS(=O)(=O)c2ccc(F)cc2)c1)c1ccc(-c2ccccc2)cc1`, for which the viability, T/C is 110% and 86.1% and 107% (compound 0.0316 µM); 79.5% and 94.1% and 96.3% (compound 0.1 µM); 78.5% and 81.6% and 79.1% (compound 0.316 µM); 90.2% and 93.1% and 97.9% (compound 1 µM); 90% and 107% and 97.1% (compound 3.16 µM); 106% and 113% and 128% (compound 10 µM). Further, the half-inhibitory concentration (IC50) (curve of compound) is above 10 µM.

As for `CC(=O)O[C@H]1C(=O)[C@@]2(C)[C@H]([C@H](OC(=O)c3ccccc3)[C@]3(O)C[C@H](OC(=O)[C@H](O)[C@@H](NC(=O)c4ccccc4)c4ccccc4)C(C)=C1C3(C)C)[C@]1(OC(C)=O)CO[C@@H]1C[C@@H]2O`, the viability, T/C reads like this: (compound 0.00949 µM) 50.9% and 53.8% and 66.3%; (compound 0.03 µM) 50.2% and 51.8% and 56.2%; (compound 0.0949 µM) 54.2% and 52.1% and 68.6%; (compound 0.3 µM) 64.3% and 52.8% and 60.4%; (compound 0.949 µM) 53.7% and 57.4% and 68.9%; (compound 3 µM) 61.5% and 58.4% and 69.8%. Further, the IC50 (curve of compound) was above 3 µM.

On to `CC(C)n1c(=O)n(C)c2cnc3cc(F)c(-c4ccc(OCCCN5CCCCC5)nc4)cc3c21`, for which the viability, T/C reads like this: (compound 0.0316 µM) 105% and 90.3% and 107%; (compound 0.1 µM) 98.6% and 91.8% and 89.1%; (compound 0.316 µM) 110% and 103% and 104%; (compound 3.16 µM) 93.9% and 88.3% and 79.2%; (compound 10 µM) 70.4% and 52.7% and 75.8%. Besides, the concentration for half-maximal inhibition (IC50) (curve of compound) is above 10 µM.

With `CNCc1ccc(-c2[nH]c3cc(F)cc4c3c2CCNC4=O)cc1` + Cc1cccc(N(C)C(=O)C2C(O)CCN2c2nc(C)cc(C(F)(F)F)c2C#N)c1, the IC50 is, setting by setting: (curve of first compound, second compound 0.0316 µM) above 10 µM; (curve of first compound, second compound 0.1 µM) above 10 µM; (curve of first compound, second compound 0.316 µM) above 10 µM; (curve of first compound, second compound 1 µM) above 10 µM; (curve of first compound, second compound 3.16 µM) above 10 µM; (curve of first compound, second compound 10 µM) above 10 µM. For the same compound, the viability, T/C amounted to 105% (second compound 0.0316 µM, first compound 0.0316 µM); 88.9% (second compound 0.0316 µM, first compound 0.1 µM); 91.2% (second compound 0.0316 µM, first compound 0.316 µM); 99.3% (second compound 0.0316 µM, first compound 1 µM); 89.6% (second compound 0.0316 µM, first compound 3.16 µM); 85.5% (second compound 0.0316 µM, first compound 10 µM). For the same compound, the viability, T/C reads like this: (second compound 0.1 µM, first compound 0.0316 µM) 94.8%; (second compound 0.1 µM, first compound 0.1 µM) 86.7%; (second compound 0.1 µM, first compound 0.316 µM) 85.6%; (second compound 0.1 µM, first compound 1 µM) 86%; (second compound 0.1 µM, first compound 3.16 µM) 101%; (second compound 0.1 µM, first compound 10 µM) 108%. Also, the viability, T/C came to 88.3% (second compound 0.316 µM, first compound 0.0316 µM); 97.1% (second compound 0.316 µM, first compound 0.1 µM); 88% (second compound 0.316 µM, first compound 0.316 µM); 85% (second compound 0.316 µM, first compound 1 µM); 80.9% (second compound 0.316 µM, first compound 3.16 µM); 89.6% (second compound 0.316 µM, first compound 10 µM). In addition, the viability, T/C is, setting by setting: (second compound 1 µM, first compound 0.0316 µM) 103%; (second compound 1 µM, first compound 0.1 µM) 85.6%; (second compound 1 µM, first compound 0.316 µM) 93.3%; (second compound 1 µM, first compound 1 µM) 85.3%; (second compound 1 µM, first compound 3.16 µM) 86.7%; (second compound 1 µM, first compound 10 µM) 89.7%. The viability, T/C is, setting by setting: (second compound 3.16 µM, first compound 0.0316 µM) 96.4%; (second compound 3.16 µM, first compound 0.1 µM) 83.9%; (second compound 3.16 µM, first compound 0.316 µM) 87.6%; (second compound 3.16 µM, first compound 1 µM) 80.8%; (second compound 3.16 µM, first compound 3.16 µM) 79.8%; (second compound 3.16 µM, first compound 10 µM) 87.3%. Besides, the viability, T/C is, setting by setting: (second compound 10 µM, first compound 0.0316 µM) 102%; (second compound 10 µM, first compound 0.1 µM) 107%; (second compound 10 µM, first compound 0.316 µM) 88%; (second compound 10 µM, first compound 1 µM) 76.6%; (second compound 10 µM, first compound 3.16 µM) 85.8%; (second compound 10 µM, first compound 10 µM) 67.1%.

(Values after PubChem BioAssay AID1963844 (Molecular Pharmacology Branch, DTP, NCI, 2024).)
